In patent US20220106296A1, “CYANOTRIAZOLE COMPOUNDS AND USES THEREOF” (Novartis AG, priority 2018, published 2022):

Tested on: T. b. brucei Lister427 bloodstream form parasites
Experiment: T. b. brucei growth inhibition assay (CellTiter-Glo, 48 hours)
Type: cell-based
Settings: Trypanosoma brucei
From the text: Bloodstream form of T. b. brucei Lister427 strain was obtained from the Genomics Institute of the Novartis Research Foundation. This strain was used for carrying out growth inhibition and kill kinetics assays. T. b. gambiense STIB930 and T. b. rhodesiense STIB900 were obtained from Swiss TPH, were used for carrying out the growth inhibition assays.
Bloodstream form T. b. brucei Lister 427 parasites were continuously passaged in HMI-9 medium formulated from IMDM medium (Invitrogen), 10% heat-inactivated fetal bovine serum (FBS), 10% Serum Plus medium supplement (SAFC Biosciences), 1 mM hypoxanthine (Sigma-Aldrich), 50 μM bathocuproine disulfonic acid (Sigma-Aldrich), 1.5 mM cysteine (Sigma-Aldrich), 1 mM pyruvic acid (Sigma-Aldrich), 39 μg/mL thymidine (Sigma-Aldrich), and 14 μL/L beta-mercapthoethanol (Sigma-Aldrich); all concentrations of added components refer to that in complete HMI-9 medium. The parasites were cultured in 10 mL of HMI-9 medium in T75 CELL-STAR tissue culture flasks at 37° C./5% CO2.
To determine compound growth inhibitory potency on T. b. brucei Lister427 bloodstream form parasites, 200 nL of 10-point, 3 fold serially diluted compounds in DMSO were transferred to the wells of white, solid bottom 384-well plates (Greiner Bio-One) by either Echo 555 acoustic liquid handling system or Mosquito. Then, 1×10^4 of T. b. brucei parasites in 40 μL of HMI-9 medium were added to each well, and the plates were incubated for 48 hours at 37° C. in 5% CO2 incubators. Parasite numbers in individual plate wells were determined through quantification of intracellular ATP amount. The CellTiter-Glo luminescent cell viability reagent (Promega) was added to plate wells, and ATP-dependent luminescence signal was measured on Tecan M1000 plate Reader after 30 min incubation. Luminescence values in wells with compounds were divided by the average luminescence value of the plate DMSO controls, and used for calculation of compound IC50 values.

Structure (SMILES) | IC50 [µM]
N#Cc1ncn(CC(=O)N2Cc3ccc(-c4cc(F)ccc4C(F)(F)F)cc3C2)n1 [Example 28, 1-(2-(5-(5-fluoro-2-(trifluoromethyl)phenyl)isoindolin-2-yl)-2-oxoethyl)-1H-1,2,4-triazole-3-carbonitrile] | < 0.1
N#Cc1ncn(CC(=O)N2Cc3ccc(-c4cccnc4Cl)cc3C2)n1 [Example 47, 1-(2-(5-(2-chloropyridin-3-yl)isoindolin-2-yl)-2-oxoethyl)-1H-1,2,4-triazole-3-carbonitrile] | 0.1 to 1
N#Cc1ncn(CC(=O)N2Cc3ccc(-c4ccncc4Cl)cc3C2)n1 [Example 49, 1-(2-(5-(3-chloropyridin-4-yl)isoindolin-2-yl)-2-oxoethyl)-1H-1,2,4-triazole-3-carbonitrile] | 0.1 to 1
COc1ccc(-c2ccc3c(c2)CN(C(=O)Cn2cnc(C#N)n2)C3)c(OC)c1 [Example 53, 1-(2-(5-(2,4-dimethoxyphenyl)isoindolin-2-yl)-2-oxoethyl)-1H-1,2,4-triazole-3-carbonitrile] | ≥ 1
N#Cc1cccc(-c2ccc3c(c2)CN(C(=O)Cn2cnc(C#N)n2)C3)c1 [Example 54, 1-(2-(5-(3-cyanophenyl)isoindolin-2-yl)-2-oxoethyl)-1H-1,2,4-triazole-3-carbonitrile] | ≥ 1
N#Cc1ncn(CC(=O)N2Cc3ccc(-c4ccc(F)cc4F)cc3C2)n1 [Example 55, 1-(2-(5-(2,4-difluorophenyl)isoindolin-2-yl)-2-oxoethyl)-1H-1,2,4-triazole-3-carbonitrile] | ≥ 1
N#Cc1ncn(CC(=O)N2Cc3ccc(-c4ccc(F)nc4)cc3C2)n1 [Example 56, 1-(2-(5-(6-fluoropyridin-3-yl)isoindolin-2-yl)-2-oxoethyl)-1H-1,2,4-triazole-3-carbonitrile] | ≥ 1
COc1ccc(F)cc1-c1ccc2c(c1)CN(C(=O)Cn1cnc(C#N)n1)C2 [Example 57, 1-(2-(5-(5-fluoro-2-methoxyphenyl)isoindolin-2-yl)-2-oxoethyl)-1H-1,2,4-triazole-3-carbonitrile] | ≥ 1
N#Cc1ncn(CC(=O)N2Cc3ccc(-c4ccc(Cl)cc4F)cc3C2)n1 [Example 58, 1-(2-(5-(4-chloro-2-fluorophenyl)isoindolin-2-yl)-2-oxoethyl)-1H-1,2,4-triazole-3-carbonitrile] | ≥ 1
COc1ccc(OC)c(-c2ccc3c(c2)CN(C(=O)Cn2cnc(C#N)n2)C3)c1 [Example 59, 1-(2-(5-(2,5-dimethoxyphenyl)isoindolin-2-yl)-2-oxoethyl)-1H-1,2,4-triazole-3-carbonitrile] | ≥ 1
N#Cc1ncn(CC(=O)N2Cc3ccc(-c4ccncc4F)cc3C2)n1 [Example 60, 1-(2-(5-(3-fluoropyridin-4-yl)isoindolin-2-yl)-2-oxoethyl)-1H-1,2,4-triazole-3-carbonitrile] | ≥ 1
COc1ccc(-c2ccc3c(c2)CN(C(=O)Cn2cnc(C#N)n2)C3)cc1 [Example 61, 1-(2-(5-(4-methoxyphenyl)isoindolin-2-yl)-2-oxoethyl)-1H-1,2,4-triazole-3-carbonitrile] | ≥ 1
COc1ccc(OC(F)(F)F)cc1-c1ccc2c(c1)CN(C(=O)Cn1cnc(C#N)n1)C2 [Example 62, 1-(2-(5-(2-methoxy-5-(trifluoromethoxy)phenyl)isoindolin-2-yl)-2-oxoethyl)-1H-1,2,4-triazole-3-carbonitrile] | ≥ 1
N#Cc1ncn(CC(=O)N2Cc3ccc(-c4ccnc(F)c4)cc3C2)n1 [Example 63, 1-(2-(5-(2-fluoropyridin-4-yl)isoindolin-2-yl)-2-oxoethyl)-1H-1,2,4-triazole-3-carbonitrile] | ≥ 1
C#Cc1ccc(-c2ccc3c(c2)CN(C(=O)Cn2cnc(C#N)n2)C3)cc1 [Example 64, 1-(2-(5-(4-ethynylphenyl)isoindolin-2-yl)-2-oxoethyl)-1H-1,2,4-triazole-3-carbonitrile] | ≥ 1
N#Cc1ncn(CC(=O)N2Cc3ccc(-c4ccccc4F)cc3C2)n1 [Example 65, 1-(2-(5-(2-fluorophenyl)isoindolin-2-yl)-2-oxoethyl)-1H-1,2,4-triazole-3-carbonitrile] | ≥ 1
N#Cc1ncn(CC(=O)N2Cc3ccc(-c4ccncc4)cc3C2)n1 [Example 66, 1-(2-oxo-2-(5-(pyridin-4-yl)isoindolin-2-yl)ethyl)-1H-1,2,4-triazole-3-carbonitrile] | ≥ 1

Structure (SMILES) | IC50 [µM]
N#Cc1ncn(CC(=O)N2Cc3ccc(-c4ccc(Br)cc4)cc3C2)n1 [Example 67, 1-(2-(5-(4-bromophenyl)isoindolin-2-yl)-2-oxoethyl)-1H-1,2,4-triazole-3-carbonitrile] | ≥ 1
N#Cc1ncn(CC(=O)N2Cc3ccc(-c4ccc(F)c(Cl)c4)cc3C2)n1 [Example 68, 1-(2-(5-(3-chloro-4-fluorophenyl)isoindolin-2-yl)-2-oxoethyl)-1H-1,2,4-triazole-3-carbonitrile] | ≥ 1
N#Cc1ncn(CC(=O)N2Cc3ccc(-c4ccccc4-c4ccccc4)cc3C2)n1 [Example 69, 1-(2-(5-([1,1′-biphenyl]-2-yl)isoindolin-2-yl)-2-oxoethyl)-1H-1,2,4-triazole-3-carbonitrile] | ≥ 1
N#Cc1ncn(CC(=O)N2Cc3ccc(-c4ccc(Cl)c(F)c4)cc3C2)n1 [Example 70, 1-(2-(5-(4-chloro-3-fluorophenyl)isoindolin-2-yl)-2-oxoethyl)-1H-1,2,4-triazole-3-carbonitrile] | ≥ 1
N#Cc1ncn(CC(=O)N2Cc3ccc(-c4ccc(Cl)cc4)cc3C2)n1 [Example 71, 1-(2-(5-(4-chlorophenyl)isoindolin-2-yl)-2-oxoethyl)-1H-1,2,4-triazole-3-carbonitrile] | ≥ 1
N#Cc1ncn(CC(=O)N2Cc3ccc(-c4ccc(F)c(F)c4)cc3C2)n1 [Example 72, 1-(2-(5-(3,4-difluorophenyl)isoindolin-2-yl)-2-oxoethyl)-1H-1,2,4-triazole-3-carbonitrile] | ≥ 1
N#Cc1ncn(CC(=O)N2Cc3ccc(-c4cccnc4F)cc3C2)n1 [Example 73, 1-(2-(5-(2-fluoropyridin-3-yl)isoindolin-2-yl)-2-oxoethyl)-1H-1,2,4-triazole-3-carbonitrile] | ≥ 1
N#Cc1ncn(CC(=O)N2Cc3ccc(-c4cc(F)cc(F)c4)cc3C2)n1 [Example 74, 1-(2-(5-(3,5-difluorophenyl)isoindolin-2-yl)-2-oxoethyl)-1H-1,2,4-triazole-3-carbonitrile] | ≥ 1
COc1ccccc1-c1ccc2c(c1)CN(C(=O)Cn1cnc(C#N)n1)C2 [Example 75, 1-(2-(5-(2-methoxyphenyl)isoindolin-2-yl)-2-oxoethyl)-1H-1,2,4-triazole-3-carbonitrile] | ≥ 1
N#Cc1ncn(CC(=O)N2Cc3ccc(-c4ccc(C(F)(F)F)cc4)cc3C2)n1 [Example 76, 1-(2-oxo-2-(5-(4-(trifluoromethyl)phenyl)isoindolin-2-yl)ethyl)-1H-1,2,4-triazole-3-carbonitrile] | ≥ 1
COc1cccc(-c2ccc3c(c2)CN(C(=O)Cn2cnc(C#N)n2)C3)c1 [Example 77, 1-(2-(5-(3-methoxyphenyl)isoindolin-2-yl)-2-oxoethyl)-1H-1,2,4-triazole-3-carbonitrile] | ≥ 1
Cc1cc(-c2ccc3c(c2)CN(C(=O)Cn2cnc(C#N)n2)C3)ccc1C(F)(F)F [Example 78, 1-(2-(5-(3-methyl-4-(trifluoromethyl)phenyl)isoindolin-2-yl)-2-oxoethyl)-1H-1,2,4-triazole-3-carbonitrile] | ≥ 1
N#Cc1ncn(CC(=O)N2Cc3ccc(-c4ccccc4)cc3C2)n1 [Example 79, 1-(2-oxo-2-(5-phenylisoindolin-2-yl)ethyl)-1H-1,2,4-triazole-3-carbonitrile] | ≥ 1
N#Cc1ncn(CC(=O)N2Cc3ccc(-c4cccc(Cl)c4)cc3C2)n1 [Example 80, 1-(2-(5-(3-chlorophenyl)isoindolin-2-yl)-2-oxoethyl)-1H-1,2,4-triazole-3-carbonitrile] | ≥ 1
N#Cc1ncn(CC(=O)N2Cc3ccc(-c4cccc(F)c4)cc3C2)n1 [Example 81, 1-(2-(5-(3-fluorophenyl)isoindolin-2-yl)-2-oxoethyl)-1H-1,2,4-triazole-3-carbonitrile] | ≥ 1
N#Cc1ncn(CC(=O)N2Cc3ccc(-c4ccc(F)cc4)cc3C2)n1 [Example 82, 1-(2-(5-(4-fluorophenyl)isoindolin-2-yl)-2-oxoethyl)-1H-1,2,4-triazole-3-carbonitrile] | ≥ 1
N#Cc1ncn(CC(=O)N2Cc3ccc(-c4ccc(OC(F)(F)F)cc4)cc3C2)n1 [Example 83, 1-(2-oxo-2-(5-(4-(trifluoromethoxy)phenyl)isoindolin-2-yl)ethyl)-1H-1,2,4-triazole-3-carbonitrile] | ≥ 1
